Test results: patent US10124111B2, “Small molecule dye for molecular imaging and photothermal therapy” (The Board of Trustees of the Leland Stanford Junior …, priority 2015, dated 2018)

Assays:
[1] = Optical characterization (emission spectrum, quantum yield, photostability); type: physicochemical; conditions: 808 nm excitation laser
Text: The NIR fluorescence spectrum was taken using a home-built NIR spectroscopy setup. The excitation source was a 200-W ozone-free mercury/xenon lamp (Oriel), which was dispersed by a monochromator (Oriel) to generate an excitation line with a bandwidth of 15 nm. The excitation light was allowed to pass through the solution sample in a 1-mm-path cuvette (Starna Cells, Inc.), and the emission was collected in a transmission geometry. The […] was collected in the 790-1500 nm emission range. The emitted light was directed into a spectrometer (Acton SP2300i) equipped with a liquid-nitrogen-cooled InGaAs linear array detector (Princeton OMA-V). Spectra were corrected post-collection to account for the sensitivity of the detector and extinction feature of the filter. Photostability was determined by spiking CH1055-PEG into serum, PBS, and DI and exposing it in a 1-mm path length cuvette (Starna Cells, Inc.) to continuous 808 nm excitation at a power density of 0.3 W/cm^2 and taking images every 10 seconds for ˜1 hour. Stability was determined by measuring the ROI and comparing the fluorescence intensity to the starting fluorescence signal.
In order to further increase solubility, the carboxylic acid groups of CH1055 were PEGylated with 2 kDa PEG-NH2 through EDC/NHS chemistry.

[2] = Photoacoustic imaging analysis of phantoms; type: physicochemical
Text: For studying the PAI properties of the compound, a cuboid container was half filled with 1% agarose gel to half depth. Different concentrations of compounds aqueous solutions were filled into polyethylene capillaries and then the capillaries were laid on the surface of solidified agarose gel. The capillaries were further covered with thin 1% agarose gel to make the surface smooth. PA spectra and PA/US coregistered images were acquired with a LAZR commercial instrument (VevoLAZR; VisualSonics). It is equipped with a LZ-250 linear array transducer and a tunable Nd:YAG laser system (680-970 nm). In our system, the Vevo LAZR PAI System with a laser at excitation wavelength of 700 nm and a focal depth of 10 mm was used to acquire PA and US images. […] Acquisition rate of 5 frames per second was used for all the experiments. The photoacoustic gain was kept at 42 dB, dynamic range at 18 dB and center frequency of 21 MHz for all studies. US and PA images were obtained sequentially. The PA signals reported were the average pixel intensities from within the Regions of Interest (ROIs). Normalization and quantification of the images were carried out using ImageJ.
Fluorophores with the present design not only have NIR II fluorescence, but also show strong absorption in the NIR-I region and show promise for in vivo photoacoustic imaging. […]

[3] = NIR-II fluorescence brightness and quantum yield in DI, PBS, FBS, serum and serum proteins; type: physicochemical
Text: The compound contains a taurine (2-aminoethanesulfonic acid) group at the carboxyl linkers of CH1055. […] Sulfonating the present NIR-II dyes is a general procedure that can be applied to a number of the NIR-II small molecules described above to increase their solubility.
The absorbance value of both fluorophores (OD 0.02) in each respective media is equivalent at the excitation wavelength (808 nm) to compare relative quantum yields. NIR-IIa fluorescent image of a C57 mouse brain (1300 LP) after an intravenous injection of equivalent doses of CH-4T (200 ms exposure; Panel B) and of CH1055-PEG (1 s exposure; Panel D). The image intensity scales have been compensated to account for the differences in the exposure times needed to clearly resolve brain vasculature.
(§1) This fluorescence enhancement produces a serum quantum yield of up to ˜10% which is on par with ICG and is among the highest quantum yields of all NIR-II fluorophores (including carbon nanotubes). While soluble in PBS, the quantum yield of CH-4T was determined to be ˜0.07%, yet is enhanced ˜60× through complexation with serum proteins in FBS.
Increased brightening of CH-4T also results from protein interactions. A fluorescence emission spectrum of CH1055-PEG and CH-4T in both FBS and PBS was determined. […] The increased intensity (40,000 a.u. around 1000 nm) for CH-4T in FBS was observed.
While CH-4T complexed with proteins produces an incredibly bright contrast agent, pretreatment of the proteins prior to complexation and subsequent isolation of the bright dye-protein complexes can introduce a further increase in brightness. For instance, a short 10 minutes of horn sonication of FBS prior to mixing with CH-4T followed by 10 minutes of heating in a hot water bath at ˜80° C. can boost the brightness of the CH-4T-protein complex by ˜3-4-fold. The effects on the fluorescence emission spectrum of heating and pre-horn sonicating can be seen while the brightness difference of an FBS-CH-4T solution before and after treatment (data not shown). […]

[4] = tested on: human and bovine albumin; experiment: Binding of CH-4T to serum proteins; conditions: whole blood, HDL
Experimental: as §1

[5] = Aqueous solubility; type: physicochemical; conditions: water / PBS
[6] = Preliminary animal imaging of CH-4T excretion; type: in vivo
Text: It is a small molecule dye similar to ICG, Cy5, and IR800, and enables easier access to NIR-II imaging, as it doesn't require a specialized knowledge of nanomaterials which make up the majority of NIR-II fluorophores.

[7] = tested on: shoulder xenograft U87MG tumors; experiment: Lymph node / lymphatic vasculature and tumor imaging after intradermal injection; type: in vivo, immunodeficient nude mice; conditions: intradermal injection near base of tail
Text: An emerging fluorescent imaging application of ICG currently undergoing clinical trials is in detecting sentinel lymph nodes (SLN) for surgical resection.(28-30) Selectively removing sentinel lymph nodes alleviates lymphedema and other ailments that would be caused by total lymph node removal performed to prevent cancer metastasis. Fluorescent imaging has many benefits compared to the more traditional detection means that include injecting a colored dye, a radioisotope, or a combination of both. ICG is typically injected near a tumor to visualize the lymphatic vessels draining the tumor as well as the sentinel lymph nodes. […] Immediately after injection, CH1055-PEG drainage into the internodal collecting lymphatic vasculature and the inguinal lymph node became apparent. […] (data not shown)
The gradual increase in fluorescence emanating from the tumor occurred while all lymphatic vessels and nodes were still visible.

Q: Which “peak fluorescent emission wavelength” value [1] does the source give for O=C(O)CCc1ccc(N(c2ccc(CCC(=O)O)cc2)c2ccc(-c3c4c(c(-c5ccc(N(c6ccc(CCC(=O)O)cc6)c6ccc(CCC(=O)O)cc6)cc5)c5nsnc35)N=S=N4)cc2)cc1 [CH1055] here?
A: The value was ~1055 nm.

Q: And the NIR-I absorption maximum [2]?
A: Its NIR-I absorption maximum is 700 nm.

Q: What about the “wavelength of maximum photoacoustic signal” value ([2]; NIR pulsed laser, 680-970 nm scan) of the same compound?
A: The value was 700 nm.

Q: For O=C(CCc1ccc(N(c2ccc(CCC(=O)NCCS(=O)(=O)O)cc2)c2ccc(-c3c4c(c(-c5ccc(N(c6ccc(CCC(=O)NCCS(=O)(=O)O)cc6)c6ccc(CCC(=O)NCCS(=O)(=O)O)cc6)cc5)c5nsnc35)N=S=N4)cc2)cc1)NCCS(=O)(=O)O [CH-4T], which quantum yield ([3]; in PBS) is on record?
A: Its quantum yield is ~0.07%.

Q: And the serum quantum yield ([3]; in serum, complexed with serum proteins)?
A: Its serum quantum yield is ≤ 10%.

Q: And the quantum yield ([3]; with treated FBS (sonicated, heated))?
A: The quantum yield was ~13%.

Q: What about the “binding to serum proteins” value [4] of the same compound?
A: Its value is “strong binding”.

Q: And the aqueous solubility [5]?
A: Its aqueous solubility is “highly soluble”.

Q: What about the excretion kinetics [6] of the same compound?
A: Its excretion kinetics is “resemble that of ICG”.

Q: For CC1(C)C(/C=C/C=C/C=C/C=C2\N(CCCCS(=O)(=O)O)c3ccc4ccccc4c3C2(C)C)=[N+](CCCCS(=O)(=O)[O-])c2ccc3ccccc3c21 [ICG, indocyanine green], which “liver signal after intradermal injection” value [7] is on record?
A: The value was “obvious liver signal”.

Q: And the “tumor fluorescence after intradermal injection” value [7]?
A: The value was “little tumor signal was observed”.
